Test results taken from ChEMBL document CHEMBL1148247, “Synthesis and histone deacetylase inhibitory activity of cyclic tetrapeptides containing a retrohydroxamate as zinc ligand” (Bioorg Med Chem Lett, 2004).
pIC50: −log10 of the molar value. Where a SMILES comes first, the peptide text is derived from it. [ ]: non-standard residue; d: D form. The star is where a group is joined. Asu = N[C@@H](CCCCCC(=O)O)C(=O)O; aIle = CC[C@@H](C)[C@H](N)C(=O)O; NHOH = ON*

Assays:
[1] = target: T1, Histone deacetylase 8 (Mus musculus, UniProt Q8VH37); test: Inhibitory activity against histone deacetylase 8 prepared from mouse melanoma B16/BL6 cells; type: cell-based
T1 sequence (Q8VH37 whole entry): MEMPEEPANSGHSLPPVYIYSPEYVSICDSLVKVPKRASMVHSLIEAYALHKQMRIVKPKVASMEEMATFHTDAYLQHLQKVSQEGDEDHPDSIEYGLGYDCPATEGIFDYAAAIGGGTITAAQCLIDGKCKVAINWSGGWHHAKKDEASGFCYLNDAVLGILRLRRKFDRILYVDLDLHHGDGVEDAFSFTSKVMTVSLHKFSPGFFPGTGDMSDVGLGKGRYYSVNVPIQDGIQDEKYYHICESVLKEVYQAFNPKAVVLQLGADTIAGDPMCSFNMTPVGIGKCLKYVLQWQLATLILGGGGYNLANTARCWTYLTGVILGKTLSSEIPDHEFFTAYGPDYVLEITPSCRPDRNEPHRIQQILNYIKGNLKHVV

[2] = target: T2, Histone deacetylase 1 (Mus musculus, UniProt O09106); conditions: b16/bl6
T2 sequence (O09106 whole entry): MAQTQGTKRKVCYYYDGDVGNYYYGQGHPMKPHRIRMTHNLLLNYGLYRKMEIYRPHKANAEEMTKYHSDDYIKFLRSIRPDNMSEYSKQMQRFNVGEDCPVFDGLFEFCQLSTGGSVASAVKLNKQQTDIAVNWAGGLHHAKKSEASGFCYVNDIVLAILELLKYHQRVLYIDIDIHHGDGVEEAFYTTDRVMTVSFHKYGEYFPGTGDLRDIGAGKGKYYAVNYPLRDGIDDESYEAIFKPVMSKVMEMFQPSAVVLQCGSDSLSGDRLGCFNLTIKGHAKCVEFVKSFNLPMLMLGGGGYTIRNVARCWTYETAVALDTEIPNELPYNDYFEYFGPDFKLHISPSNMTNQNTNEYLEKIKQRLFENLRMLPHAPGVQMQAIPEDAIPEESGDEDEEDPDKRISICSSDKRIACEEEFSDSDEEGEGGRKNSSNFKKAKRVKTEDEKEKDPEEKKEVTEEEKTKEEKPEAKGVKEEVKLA
Description: (§1) Inhibitory activity against histone deacetylases (HDAC1) prepared from mouse melanoma B16/BL6 cells

[3] = target: T3, Protein deacetylase HDAC6 (Mus musculus, UniProt Q9Z2V5); test: Inhibitory activity against histone deacetylase 6 prepared from mouse melanoma B16/BL6 cells; type: cell-based
T3 sequence (Q9Z2V5 whole entry): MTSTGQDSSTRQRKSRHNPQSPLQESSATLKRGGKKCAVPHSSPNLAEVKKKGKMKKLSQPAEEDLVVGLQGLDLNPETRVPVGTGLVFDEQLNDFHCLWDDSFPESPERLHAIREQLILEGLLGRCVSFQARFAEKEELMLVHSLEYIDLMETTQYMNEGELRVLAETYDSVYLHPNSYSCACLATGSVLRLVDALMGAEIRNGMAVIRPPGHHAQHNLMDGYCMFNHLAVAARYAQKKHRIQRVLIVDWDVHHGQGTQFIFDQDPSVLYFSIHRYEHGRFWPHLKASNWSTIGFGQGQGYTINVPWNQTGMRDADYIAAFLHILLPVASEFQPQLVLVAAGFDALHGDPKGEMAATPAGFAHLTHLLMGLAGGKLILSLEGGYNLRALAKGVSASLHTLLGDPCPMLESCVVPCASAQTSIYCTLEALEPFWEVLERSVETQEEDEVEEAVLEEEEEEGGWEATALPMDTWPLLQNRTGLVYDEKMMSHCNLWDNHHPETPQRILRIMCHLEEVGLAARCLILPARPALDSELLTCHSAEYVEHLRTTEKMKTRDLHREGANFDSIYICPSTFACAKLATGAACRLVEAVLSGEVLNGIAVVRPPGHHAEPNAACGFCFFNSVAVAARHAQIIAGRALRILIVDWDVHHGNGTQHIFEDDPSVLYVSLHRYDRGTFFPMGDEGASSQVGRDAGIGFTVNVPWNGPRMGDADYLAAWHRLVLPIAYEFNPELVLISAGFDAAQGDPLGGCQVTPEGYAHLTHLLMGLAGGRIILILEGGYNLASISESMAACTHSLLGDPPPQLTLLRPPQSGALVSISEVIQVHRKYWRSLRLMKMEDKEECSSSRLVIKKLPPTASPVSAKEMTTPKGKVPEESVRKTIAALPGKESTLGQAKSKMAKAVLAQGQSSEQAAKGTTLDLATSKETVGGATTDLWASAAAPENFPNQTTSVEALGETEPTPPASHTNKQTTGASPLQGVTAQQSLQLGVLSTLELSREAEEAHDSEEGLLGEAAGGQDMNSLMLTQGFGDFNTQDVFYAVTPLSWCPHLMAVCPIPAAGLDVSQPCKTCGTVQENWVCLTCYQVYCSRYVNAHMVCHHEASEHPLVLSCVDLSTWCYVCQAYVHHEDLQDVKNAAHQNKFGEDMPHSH

[4] = target: Histone deacetylase; test: Inhibitory activity against histone deacetylases (HDAC) prepared from mouse melanoma B16/BL6 cells; type: cell-based
[5] = species: Mus musculus; test: Effective concentration in histone deacetylases (HDAC) using p21 promoter assay
[6] = target: T2, Histone deacetylase 1
Description: as §1

With CC[C@@H](C)[C@@H]1NC(=O)[C@@H](Cc2ccc(OC)cc2)NC(=O)[C@H](CCCCCN(O)C=O)NC(=O)[C@@H]2CCCN2C1=O the pIC50 ([1]; b16/bl6) was 7.47, the pIC50 [2] was 7.48 and the pIC50 ([3]; b16/bl6) was 7.54.
CC[C@@H](C)[C@@H]1NC(=O)[C@@H](Cc2ccc(OC)cc2)NC(=O)[C@H](CCCCCCN(O)C=O)NC(=O)[C@H]2CCCCN2C1=O showed an IC50 [4] of 893 nM.
Work on CC[C@@H](C)[C@@H]1NC(=O)[C@@H](Cc2ccc(OC)cc2)NC(=O)[C@H](CCCCN(O)C=O)NC(=O)[C@H]2CCCCN2C1=O yielded an IC50 [4] of 957 nM.
CC[C@@H](C)[C@@H]1NC(=O)[C@@H](Cc2ccc(OC)cc2)NC(=O)[C@H](CCCCCN(O)C=O)NC(=O)[C@@H]2CCCCN2C1=O gave an IC50 [4] of 141 nM.
With CC[C@@H](C)[C@@H]1NC(=O)[C@@H](Cc2ccc(OC)cc2)NC(=O)[C@H](CCCCCCN(O)C=O)NC(=O)[C@@H]2CCCCN2C1=O the IC50 [4] was 1350 nM.
Work on CC[C@@H](C)[C@@H]1NC(=O)[C@@H](Cc2ccc(OC)cc2)NC(=O)[C@H](CCCCCN(O)C(C)=O)NC(=O)[C@H]2CCCCN2C1=O yielded an IC50 [4] of 43800 nM.
Work on CC[C@@H](C)[C@@H]1NC(=O)[C@@H](Cc2ccc(OC)cc2)NC(=O)[C@H](CCCCCC(=O)NO)NC(=O)[C@H]2CCCN2C1=O (cyclo([Asu](NHOH)[dY](Me)[aIle][dP])) yielded an EC1000 [5] of 0.022 µM.
CC(/C=C/C(=O)NO)=C\[C@@H](C)C(=O)c1ccc(N(C)C)cc1 [TRICHOSTATIN] was tested, and the EC1000 [5] was 0.19 µM.
Compound CC[C@@H](C)[C@@H]1NC(=O)[C@@H](Cc2ccc(OC)cc2)NC(=O)[C@H](CCCCCN(O)C=O)NC(=O)[C@H]2CCCCN2C1=O has an IC50 [4] of 84 nM, a pIC50 [6] of 7.59 and a pIC50 [1] of 7.34. The pIC50 [3] was 6.11.
CC[C@@H](C)[C@@H]1NC(=O)[C@@H](Cc2ccc(OC)cc2)NC(=O)[C@H](CCCCN(O)C(C)=O)NC(=O)[C@@H]2CCCCN2C1=O showed an IC50 [4] of 88500 nM.
Work on CC[C@@H](C)[C@@H]1NC(=O)[C@@H](Cc2ccc(OC)cc2)NC(=O)[C@H](CCCCCN(O)C=O)NC(=O)[C@H]2CCCN2C1=O yielded an EC1000 [5] of 0.61 µM, a pIC50 [6] of 7.17 and a pIC50 [1] of 7.23. It also gave a pIC50 [3] of 6.75.
Work on CC[C@@H](C)[C@@H]1NC(=O)[C@@H](Cc2ccc(OC)cc2)NC(=O)[C@H](CCCCN(O)C=O)NC(=O)[C@@H]2CCCCN2C1=O yielded an IC50 [4] of 1392 nM.
CC[C@@H](C)[C@@H]1NC(=O)[C@@H](Cc2ccc(OC)cc2)NC(=O)[C@H](CCCCCCC(=O)NO)NC(=O)[C@@H]2CCCCN2C1=O was tested, and the IC50 [4] was 3.96 nM.
Work on CC[C@H](C)[C@@H]1NC(=O)[C@@H](Cc2ccc(OC)cc2)NC(=O)[C@H](CCCCCC(=O)NO)NC(=O)[C@H]2CCCN2C1=O (cyclo([Asu](NHOH)[dY](Me)I[dP])) yielded a pIC50 [6] of 9.40.
Compound CC[C@@H](C)[C@@H]1NC(=O)[C@@H](Cc2ccc(OC)cc2)NC(=O)[C@H](CCCCN(O)C(C)=O)NC(=O)[C@H]2CCCCN2C1=O has an IC50 [4] of 88400 nM.
Work on CC[C@@H](C)[C@@H]1NC(=O)[C@@H](Cc2ccc(OC)cc2)NC(=O)[C@H](CCCCCN(O)C(C)=O)NC(=O)[C@@H]2CCCCN2C1=O yielded an IC50 [4] of 58000 nM.
